Read-outs that look alike come from different tables or passages of the source.
Assays:
[1] = system: Mexican 226 K wheat variety; test: Nitrogen contents of grains of Mexican 226 K wheat (Example 31); type: in vivo; settings: for Protein nitrogen content: control 1.61; for Total nitrogen content: seed 2 kg/ha + soil 2 kg/ha, control 2.12
Protocol: Two wheat varieties, Libelulla and Mexican 226 K, were utilized in the tests performed under large-parcel field conditions. The sowing seeds were coated with the compositions of the invention according to the wet powder seed dressing technique; a dosis of 2 kg/ha was applied.
The soil was also treated with the compositions according to the invention directly before sowing. A dose of 2 kg/ha was applied.
The grain yields of the wheat varieties, harvested from the treated and control parcels, were measured, and the total nitrogen content and protein nitrogen content of the grains were determined.

Pinto bean = test: Stimulation of membrane activity (nitrate uptake), Pinto bean (Example 25); type: in vivo; settings: for Protein nitrogen / Total nitrogen: 2 weeks; for Protein nitrogen / Total nitrogen / Protein nitrogen, stimulation / Protein nitrogen content in % of the total nitrogen content: zeatin 20, kinetin/benzyladenine 30, others 200 ppm; for Protein nitrogen: control 2.4; for Total nitrogen: control 3.8; for Total nitrogen, stimulation: 200 ppm; for Protein nitrogen content in % of the total nitrogen content: control 63
Protocol: The tests were performed on Pinto bean. The plants were treated with solutions of an endogeneous cytokinin (zeatin), synthetic cytokinins and membraneactive regulators according to the invention, respectively, and the leaves of the plants were analyzed 2 weeks after the treatment.

grass stands = test: Crop yield and nitrogen content of grass stand (Example 34); type: in vivo; settings: for Protein nitrogen content / Total nitrogen content / Crop yield: 3 x 2 kg/ha; for Protein nitrogen content: control 2.80; for Total nitrogen content: control 4.22; for Crop yield: 4 m^2 parcels, control 5.10
Protocol: Tests were performed on grass stands to examine how the compositions according to the invention influence the crop yield, furthermore the total nitrogen content and protein nitrogen content of the crop.
Parcels, 4 m^2 in area, were separated and pegged out on a grass land, and the parcels were sprayed three times with the compositions according to the invention. The liquid compositions were diluted with water prior to spraying, and spraying was repeated in every two weeks. A dose of 2 kg/ha w was applied in each of the treatments.
Thereafter the grass was mowed, the green crop was weighed, and the total nitrogen content and protein nitrogen content of the mowed grass were determined.

leaves of Pinto bean = test: Stimulation of photolytic activity, HTO, Pinto bean (Example 23); settings: 18 hours, zeatin 20, kinetin/benzyladenine 30, others 200 ppm; for Photolytic activity: control 7.64
Protocol: The stimulating effects of an endogeneous cytokinin (zeatin), synthetic cytokinins (kinetin, benzyladenine) and the cytokinin-like regulators according to the invention exerted on the photolytic activity connected to the decomposition of HTO were examined on leaves of Pinto bean. The leaf discs were floated for 18 hours on solutions of the substances under examination, and then exposed to a radioactivity of 200 μCi/100 ml for one hour to effect photolysis of HTO.

sugar beet = test: Crop yield and sugar content of sugar beet (Example 32); type: in vivo; settings: for Crop yield: 1 kg/ha seed + 2 x 2 kg/ha, control 541; for Sugar content: after harvesting, control 16.0; for Sugar yield: control 87.56; for Sugar yield, increase: in vivo
Protocol: Glomeruli of sugar beet were treated with the compositions according to the invention (a dose corresponding to 1 kg/ha was applied), and the glomeruli were sown into large parcels. The plants emerged were sprayed twice with the compositions according to the invention, applying a dose of 2 kg/ha, each.
The sugar contents of the plants grown on the treated and control parcels were examined in August.
The crop yield and the sugar content were also determined after harvesting.

Pinto beans = test: Preservation of chlorophyll in Pinto beans (Example 17); type: in vivo; settings: zeatin 20 ppm, kinetin/benzyladenine 30 ppm, others 200 ppm; for Extinction: 665 mμ, 200 mg fresh weight, 2 weeks
Protocol: Endogeneous and synthetic cytokinins were applied as comparative substances. Solutions with varying concentrations, but always more dilute than 10^-4 moles, were applied in the tests.
The tests were performed on Pinto beans. The plants were treated with an endogenous cytokinin (zeatine), synthetic cytokinins (kinetin, benzyladenine) or cytokinin-like compounds, respectively, and the chlorophyll content of the leaves was determined 2 weeks after the treatment by measuring the extinction of the extract of the leaves at 665 mμ.

[2] = system: Egri leanyka vine variety; test: Berry yield and sugar content of vine, Egri leanyka (Example 33); type: in vivo; settings: for Berry yield: 3 x 2 kg/ha, control 151.15; for Sugar content: control 16.7; for Sugar yield: control 18.93
Protocol: Vine stands were sprayed with the compositions according to the invention to examine their effects exerted on the berry yield and sugar content. The compositions, diluted with water, were sprayed three times onto the plants. The first treatment was performed prior to flowering, the second one three weeks later, and the third one six weeks after the first one. The dose applied was 2 kg/ha in each of the treatments.
Comparative tests were also performed with commonly used growth regulating compositions, i.e. CCC (chlorocholine chloride), Ethrel (or Etefon; 2-chloroethylphosphonic acid) and Nevirol (N-phenyl-phthalaiminic acid). The results were compared to those observed with the untreated controls.
Two vine varieties, Pannonia and Egri leanyka, were involved in the tests.

Pea = test: Stimulation of nutrient uptake, labelled phosphate, pea (Example 24); settings: for labelled phosphate in nucleic acid fraction: 200 ppm, control 23.3
Protocol: (§1) The compositions according to the invention were diluted with distilled water to an active agent concentration of 200 ppm, and leaf segments of wheat, maize and pea, weighing 200 mg each, were treated with the solutions. Thereafter the treated green leaf segments were treated for 0.5 hours with a solution of labelled phosphate ions (radioactivity: 30 μCi/50 ml). After this exposition period the treated leaf segments and the untreated controls were processed in a manner known per se to isolate the nucleic acid fractions, and the isolated nucleic acid fractions were dissolved in 6 n ammonium hydroxide solution. Stock solutions were prepared from the resulting solutions, and the amount of labelled phosphate ions present in the stock solutions were measured by liquid scintillation.

Maize = test: Stimulation of nutrient uptake, labelled phosphate, maize (Example 24); settings: for labelled phosphate in nucleic acid fraction: 200 ppm, control 31.2
Protocol: as §1

leaves of Pinto beans = test: Stimulation of carbon dioxide fixation, Pinto beans (Example 21); settings: zeatin 20, kinetin/benzyladenine 30, others 200 ppm; for Radioactivity A: A = in the light, control 2.14; for Radioactivity B: B = in the dark, control 0.18; for Radioactivity C: C = photosynthetic, control 2.32
Protocol: The tests were performed on leaves of Pinto beans. The leaf segments were treated with an endogeneous cytokinin (zeatin), synthetic cytokinins (kinetin, benzyladenine) or with the compositions according to the invention, respectively, by floating the leaf segments on the solution of the test substance for 18 hours, thereafter the leaf segments were exposed to labelled carbon dioxide (activity: 100 μCi/5000 ml of ^14 CO2) for 0.5 hours.

Alfalfa = test: Total and protein nitrogen content of alfalfa, field (Example 26); type: in vivo; settings: for Protein nitrogen content: control 2.25; for Total nitrogen content: control 3.36
Protocol: Alfalfa was treated with the compositions according to the invention under large-parcel field conditions. The tests were performed in fourfold replications on parcels 1 hectare in area, each. The oily compositions according to the invention were diluted with water and then sprayed onto the test parcels either once or twice.
The parcels were sprayed first when the soil was already covered with sprouting alfalfa shoots. The second treatment, if any, was performed two weeks later. The dose applied in all of the treatments was 2 kg/ha.
The total nitrogen content and the protein nitrogen content of alfalfa, harvested from the untreated, once-treated and twice-treated parcels, was measured.

N=C(N)N.N=C(N)N.Oc1nnc(O)c2ccccc12 [1,4-dihydroxyphthalazine diguanidine salt]
Protein nitrogen content, stimulation [1]: 28.5%
Total nitrogen content, stimulation [1]: 5.6%
Protein nitrogen content [1]: 2.07 % of dry substance
Total nitrogen content [1]: 2.81 % of dry substance
Protein nitrogen (Pinto bean): 4.1 % of dry weight
Total nitrogen (Pinto bean): 4.8 % of dry weight
Total nitrogen, stimulation (Pinto bean): 26.3%
Protein nitrogen, stimulation (Pinto bean): 70.8%
Protein nitrogen content in % of the total nitrogen content (Pinto bean): 85%
Protein nitrogen content (grass stands): 2.62%
Total nitrogen content (grass stands): 3.89%
Crop yield (grass stands): 5.35
Stimulation (leaves of Pinto bean): 79%
Photolytic activity (leaves of Pinto bean): 13.72 dpm/mg of glucose
Crop yield (sugar beet): 608 q/ha
Sugar content (sugar beet): 16.45%
Sugar yield (sugar beet): 100.01 q/ha
Sugar yield, increase (sugar beet): 14%
Extinction (Pinto beans): 0.985
Promotion (Pinto beans): 46.8%
Berry yield [2]: 124.23 q/ha
Sugar content [2]: 16.8%
Sugar yield [2]: 15.65 q/ha
activation at 200 ppm (Pea): 51.7%
labelled phosphate in nucleic acid fraction (Pea): 38.4 1000 cpm/g
labelled phosphate in nucleic acid fraction (Maize): 47.0 1000 cpm/g
activation at 200 ppm (Maize; Zea mays): 50.6%
Radioactivity A (leaves of Pinto beans): 3.38 dpm/200 mg fresh weight
Radioactivity B (leaves of Pinto beans): 0.31 dpm/200 mg fresh weight
Radioactivity C (leaves of Pinto beans): 3.69 dpm/200 mg fresh weight
Stimulation (leaves of Pinto beans): 59.3%
Protein nitrogen content, stimulation (Alfalfa; 1 treatment, 2 kg/ha): 54%
Total nitrogen content, stimulation (Alfalfa; 1 treatment, 2 kg/ha): 24%
Protein nitrogen content (Alfalfa; 1 treatment, 2 kg/ha): 3.48 % of dry substance
Total nitrogen content (Alfalfa; 1 treatment, 2 kg/ha): 4.17 % of dry substance

CCC[n+]1c[nH]c2ccccc21.[Br-] [N--(n-Propyl)-benzimidazolium bromide, N-(n-propyl)-benzimidazolium bromide]
Protein nitrogen content, stimulation [1]: 8.0%
Total nitrogen content, stimulation [1]: 1.0%
Protein nitrogen content [1]: 1.74 % of dry substance
Total nitrogen content [1]: 2.15 % of dry substance
Protein nitrogen (Pinto bean): 4.4 % of dry weight
Total nitrogen (Pinto bean): 5.3 % of dry weight
Total nitrogen, stimulation (Pinto bean): 39.4%
Protein nitrogen, stimulation (Pinto bean): 83.3%
Protein nitrogen content in % of the total nitrogen content (Pinto bean): 83%
Protein nitrogen content (grass stands): 3.54%
Total nitrogen content (grass stands): 5.36%
Crop yield (grass stands): 5.27
Protein nitrogen content, increase (grass stands; in vivo): 26.4%
Total nitrogen content, increase (grass stands; in vivo): 27.0%
Stimulation (leaves of Pinto bean): 84%
Photolytic activity (leaves of Pinto bean): 14.08 dpm/mg of glucose
Crop yield (sugar beet): 877 q/ha
Sugar content (sugar beet): 17.05%
Sugar yield (sugar beet): 149.49 q/ha
Sugar yield, increase (sugar beet): 70%
Extinction (Pinto beans): 1.081
Promotion (Pinto beans): 61.2%
Berry yield, increase [2]: 17.0%
Sugar yield, increase [2]: 17.0%
influence on sugar content, in words [2]: did not influence the sugar content
Berry yield [2]: 176.92 q/ha
Sugar content [2]: 16.7%
Sugar yield [2]: 22.16 q/ha
Berry yield, increase ([2]; listed as N-(n-propyl)-benzimidazolium bromide): 17%
labelled phosphate in nucleic acid fraction (Pea): 32.7 1000 cpm/g
labelled phosphate in nucleic acid fraction (Maize): 39.3 1000 cpm/g
Radioactivity A (leaves of Pinto beans): 3.92 dpm/200 mg fresh weight
Radioactivity B (leaves of Pinto beans): 0.34 dpm/200 mg fresh weight
Radioactivity C (leaves of Pinto beans): 4.26 dpm/200 mg fresh weight
Stimulation (leaves of Pinto beans): 84.0%
Protein nitrogen content, stimulation (Alfalfa; 1 treatment, 2 kg/ha): 8%
Total nitrogen content, stimulation (Alfalfa; 1 treatment, 2 kg/ha): 4%
Protein nitrogen content (Alfalfa; 1 treatment, 2 kg/ha): 2.48 % of dry substance
Total nitrogen content (Alfalfa; 1 treatment, 2 kg/ha): 3.51 % of dry substance
Protein nitrogen content, stimulation (Alfalfa; 2 treatments, 2 kg/ha each): 22%
Total nitrogen content, stimulation (Alfalfa; 2 treatments, 2 kg/ha each): 13%
Protein nitrogen content (Alfalfa; 2 treatments, 2 kg/ha each): 2.75 % of dry substance
Total nitrogen content (Alfalfa; 2 treatments, 2 kg/ha each): 3.91 % of dry substance

Reference: patent publication US4620871A (priority 1980, dated 1986)
